Tests used:
Assay in all cases: Test C pre-/postemergence greenhouse test
Type in all cases: in vivo
Settings in all cases: scale 0 to 100
[1] = test system: poinsettia, wild (Euphorbia heterophylla)
Excerpt: (§1) Seeds of plant species selected from blackgrass (Alopecurus myosuroides), ryegrass, Italian (Lolium multiflorum), wheat, winter (winter wheat, Triticum aestivum), galium (catchweed bedstraw, Galium aparine), corn (Zea mays), crabgrass, large (Digitaria sanguinalis), foxtail, giant (Setaria faberii), johnsongrass (Sorghum halepense), lambsquarters (Chenopodium album), morningglory (Ipomoea coccinea), nutsedge, yellow (Cyperus esculentus), pigweed (Amaranthus retroflexus), ragweed (common ragweed, Ambrosia elatior), soybean (Glycine max), barnyardgrass (Echinochloa crus-galli), oilseed rape (Brassica napus), waterhemp (common waterhemp, Amaranthus rudis), pigweed, palmer (Amaranthus palmeri), kochia (Kochia scoparia), oat, wild (Avena fatua), surinam grass (Brachiaria decumbens), windgrass (Apera spica-venti), poinsettia, wild (Euphorbia heterophylla) and velvetleaf (Abutilon theophrasti) were planted into a silt loam soil and treated preemergence with test chemicals formulated in a non-phytotoxic solvent mixture which included a surfactant.
(§2) At the same time, plants selected from these crop and weed species and also chickweed (common chickweed, Stellaria media), buckwheat, wild (Polygonum convolvulus), mustard, wild (Sinapis arvensis), field poppy (Papaver rhoeas), field violet (Viola arvensis), nightshade (eastern black nightshade, Solanum ptycanthum), speedwell (bird's-eye speedwell, Veronica persica), horseweed (Conyza canadensis), cutleaf geranium (Geranium dissectum), and Canada thistle (Cirsium arvense) were planted in pots containing Redi-Earth® planting medium (Scotts Company, 14111 Scottslawn Road, Marysville, Ohio 43041) comprising spaghnum peat moss, vermiculite, wetting agent and starter nutrients and treated with postemergence applications of test chemicals formulated in the same manner. Plants ranged in height from 2 to 18 cm (1- to 4-leaf stage) for postemergence treatments. Treated plants and controls were maintained in a greenhouse for 13 to 21 d, after which time all species were compared to controls and visually evaluated. Plant response ratings, summarized in Table C-1 (postemergence) and C-2 (preemergence), are based on a scale of 0 to 100 where 0 is no effect and 100 is complete control. A dash (-) response means no test result.

[2] = test system: ryegrass, Italian (Lolium multiflorum)
Excerpt: as §1, §2

[3] = test system: ragweed (common ragweed, Ambrosia elatior)
Excerpt: as §1, §2

[4] = test system: corn (Zea mays)
Excerpt: as §1, §2

[5] = test system: nutsedge, yellow (Cyperus esculentus)
Excerpt: as §1, §2

[6] = test system: morningglory (Ipomoea coccinea)
Excerpt: as §1, §2

[7] = test system: blackgrass (Alopecurus myosuroides)
Excerpt: as §1, §2

[8] = test system: pigweed, palmer (Amaranthus palmeri)
Excerpt: as §1, §2

[9] = test system: oilseed rape (Brassica napus)
Excerpt: as §1, §2

[10] = test system: galium (catchweed bedstraw, Galium aparine)
Excerpt: as §1, §2

[11] = test system: crabgrass, large (Digitaria sanguinalis)
Excerpt: as §1, §2

[12] = test system: velvetleaf (Abutilon theophrasti)
Excerpt: as §1, §2

[13] = test system: soybean (Glycine max)
Excerpt: as §1, §2

## Cc1cc(Cl)c2ccccc2c1-c1c(O)c(Cl)nn(C)c1=O [Cpd. No. 65]
[1]; Postemergence, 16 g ai/ha
  Plant response rating, Poinsettia, Wild: 70
[1]; Postemergence, 31 g ai/ha
  Plant response rating, Poinsettia, Wild: 95
[1]; Postemergence, 62 g ai/ha
  Plant response rating, Poinsettia, Wild: 80
[1]; Postemergence, 125 g ai/ha
  Plant response rating, Poinsettia, Wild: 100
[1]; Preemergence, 31 g ai/ha
  Plant response rating, Poinsettia, Wild: 35
[1]; Preemergence, 61 g ai/ha
  Plant response rating, Poinsettia, Wild: 25
[1]; Preemergence, 62 g ai/ha
  Plant response rating, Poinsettia, Wild: 70
[1]; Preemergence, 125 g ai/ha
  Plant response rating, Poinsettia, Wild: 100
[2]; Postemergence, 16 g ai/ha
  Plant response rating, Ryegrass, Italian: 85
[2]; Postemergence, 31 g ai/ha
  Plant response rating, Ryegrass, Italian: 95
[2]; Postemergence, 62 g ai/ha
  Plant response rating, Ryegrass, Italian: 95
[2]; Postemergence, 125 g ai/ha
  Plant response rating, Ryegrass, Italian: 95
[2]; Preemergence, 31 g ai/ha
  Plant response rating, Ryegrass, Italian: 70
[2]; Preemergence, 61 g ai/ha
  Plant response rating, Ryegrass, Italian: 40
[2]; Preemergence, 62 g ai/ha
  Plant response rating, Ryegrass, Italian: 95
[2]; Preemergence, 125 g ai/ha
  Plant response rating, Ryegrass, Italian: 95
[3]; Postemergence, 16 g ai/ha
  Plant response rating, Ragweed: 98
[3]; Postemergence, 31 g ai/ha
  Plant response rating, Ragweed: 100
[3]; Postemergence, 62 g ai/ha
  Plant response rating, Ragweed: 98
[3]; Postemergence, 125 g ai/ha
  Plant response rating, Ragweed: 98
[3]; Preemergence, 31 g ai/ha
  Plant response rating, Ragweed: 95
[3]; Preemergence, 61 g ai/ha
  Plant response rating, Ragweed: 65
[3]; Preemergence, 62 g ai/ha
  Plant response rating, Ragweed: 98
[3]; Preemergence, 125 g ai/ha
  Plant response rating, Ragweed: 100
[4]; Postemergence, 16 g ai/ha
  Plant response rating, Corn: 30
[4]; Postemergence, 31 g ai/ha
  Plant response rating, Corn: 40
[4]; Postemergence, 62 g ai/ha
  Plant response rating, Corn: 65
[4]; Postemergence, 125 g ai/ha
  Plant response rating, Corn: 75
[4]; Preemergence, 31 g ai/ha
  Plant response rating, Corn: 0
[4]; Preemergence, 61 g ai/ha
  Plant response rating, Corn: 0
[4]; Preemergence, 62 g ai/ha
  Plant response rating, Corn: 5
[4]; Preemergence, 125 g ai/ha
  Plant response rating, Corn: 15
[5]; Postemergence, 16 g ai/ha
  Plant response rating, Nutsedge, Yellow: 50
[5]; Postemergence, 31 g ai/ha
  Plant response rating, Nutsedge, Yellow: 75
[5]; Postemergence, 62 g ai/ha
  Plant response rating, Nutsedge, Yellow: 65
[5]; Postemergence, 125 g ai/ha
  Plant response rating, Nutsedge, Yellow: 95
[5]; Preemergence, 31 g ai/ha
  Plant response rating, Nutsedge, Yellow: 75
[5]; Preemergence, 61 g ai/ha
  Plant response rating, Nutsedge, Yellow: 10
[5]; Preemergence, 62 g ai/ha
  Plant response rating, Nutsedge, Yellow: 75
[5]; Preemergence, 125 g ai/ha
  Plant response rating, Nutsedge, Yellow: 95
[6]; Postemergence, 16 g ai/ha
  Plant response rating, Morningglory: 98
[6]; Postemergence, 31 g ai/ha
  Plant response rating, Morningglory: 100
[6]; Postemergence, 62 g ai/ha
  Plant response rating, Morningglory: 100
[6]; Postemergence, 125 g ai/ha
  Plant response rating, Morningglory: 100
[6]; Preemergence, 31 g ai/ha
  Plant response rating, Morningglory: 90
[6]; Preemergence, 61 g ai/ha
  Plant response rating, Morningglory: 55
[6]; Preemergence, 62 g ai/ha
  Plant response rating, Morningglory: 98
[6]; Preemergence, 125 g ai/ha
  Plant response rating, Morningglory: 95
[7]; Postemergence, 16 g ai/ha
  Plant response rating, Blackgrass: 55
[7]; Postemergence, 31 g ai/ha
  Plant response rating, Blackgrass: 90
[7]; Postemergence, 62 g ai/ha
  Plant response rating, Blackgrass: 90
[7]; Postemergence, 125 g ai/ha
  Plant response rating, Blackgrass: 95
[7]; Preemergence, 31 g ai/ha
  Plant response rating, Blackgrass: 5
[7]; Preemergence, 61 g ai/ha
  Plant response rating, Blackgrass: 10
[7]; Preemergence, 62 g ai/ha
  Plant response rating, Blackgrass: 55
[7]; Preemergence, 125 g ai/ha
  Plant response rating, Blackgrass: 85
[8]; Postemergence, 16 g ai/ha
  Plant response rating, Pigweed, Palmer: 35
[8]; Postemergence, 31 g ai/ha
  Plant response rating, Pigweed, Palmer: 55
[8]; Postemergence, 62 g ai/ha
  Plant response rating, Pigweed, Palmer: 60
[8]; Postemergence, 125 g ai/ha
  Plant response rating, Pigweed, Palmer: 95
[8]; Preemergence, 31 g ai/ha
  Plant response rating, Pigweed, Palmer: 70
[8]; Preemergence, 61 g ai/ha
  Plant response rating, Pigweed, Palmer: 50
[8]; Preemergence, 62 g ai/ha
  Plant response rating, Pigweed, Palmer: 100
[8]; Preemergence, 125 g ai/ha
  Plant response rating, Pigweed, Palmer: 100
[9]; Postemergence, 16 g ai/ha
  Plant response rating, Oilseed Rape: 95
[9]; Postemergence, 31 g ai/ha
  Plant response rating, Oilseed Rape: 100
[9]; Postemergence, 62 g ai/ha
  Plant response rating, Oilseed Rape: 100
[9]; Postemergence, 125 g ai/ha
  Plant response rating, Oilseed Rape: 100
[9]; Preemergence, 31 g ai/ha
  Plant response rating, Oilseed Rape: 5
[9]; Preemergence, 61 g ai/ha
  Plant response rating, Oilseed Rape: 5
[9]; Preemergence, 62 g ai/ha
  Plant response rating, Oilseed Rape: 98
[9]; Preemergence, 125 g ai/ha
  Plant response rating, Oilseed Rape: 100
[10]; Postemergence, 16 g ai/ha
  Plant response rating, Galium: 90
[10]; Postemergence, 31 g ai/ha
  Plant response rating, Galium: 90
[10]; Postemergence, 62 g ai/ha
  Plant response rating, Galium: 95
[10]; Postemergence, 125 g ai/ha
  Plant response rating, Galium: 98
[10]; Preemergence, 31 g ai/ha
  Plant response rating, Galium: 85
[10]; Preemergence, 61 g ai/ha
  Plant response rating, Galium: 0
[10]; Preemergence, 62 g ai/ha
  Plant response rating, Galium: 98
[10]; Preemergence, 125 g ai/ha
  Plant response rating, Galium: 100
[11]; Postemergence, 16 g ai/ha
  Plant response rating, Crabgrass, Large: 30
[11]; Postemergence, 31 g ai/ha
  Plant response rating, Crabgrass, Large: 40
[11]; Postemergence, 62 g ai/ha
  Plant response rating, Crabgrass, Large: 40
[11]; Postemergence, 125 g ai/ha
  Plant response rating, Crabgrass, Large: 70
[11]; Preemergence, 31 g ai/ha
  Plant response rating, Crabgrass, Large: 0
[11]; Preemergence, 61 g ai/ha
  Plant response rating, Crabgrass, Large: 0
[11]; Preemergence, 62 g ai/ha
  Plant response rating, Crabgrass, Large: 60
[11]; Preemergence, 125 g ai/ha
  Plant response rating, Crabgrass, Large: 65
[12]; Postemergence, 16 g ai/ha
  Plant response rating, Velvetleaf: 40
[12]; Postemergence, 31 g ai/ha
  Plant response rating, Velvetleaf: 85
[12]; Postemergence, 62 g ai/ha
  Plant response rating, Velvetleaf: 100
[12]; Postemergence, 125 g ai/ha
  Plant response rating, Velvetleaf: 100
[12]; Preemergence, 31 g ai/ha
  Plant response rating, Velvetleaf: 60
[12]; Preemergence, 61 g ai/ha
  Plant response rating, Velvetleaf: 40
[12]; Preemergence, 62 g ai/ha
  Plant response rating, Velvetleaf: 75
[12]; Preemergence, 125 g ai/ha
  Plant response rating, Velvetleaf: 100
[13]; Postemergence, 16 g ai/ha
  Plant response rating, Soybean: 65
[13]; Postemergence, 31 g ai/ha
  Plant response rating, Soybean: 75
[13]; Postemergence, 62 g ai/ha
  Plant response rating, Soybean: 80
[13]; Postemergence, 125 g ai/ha
  Plant response rating, Soybean: 85
[13]; Preemergence, 31 g ai/ha
  Plant response rating, Soybean: 0
[13]; Preemergence, 61 g ai/ha
  Plant response rating, Soybean: 0
[13]; Preemergence, 62 g ai/ha
  Plant response rating, Soybean: 5
[13]; Preemergence, 125 g ai/ha
  Plant response rating, Soybean: 30
